“And” between values parts separate entries of the source, which are not always exact repeats. Equal entries are not always repeated. Where two headings read alike, the source gives them in different places.
Columns and labels:
[1] = Analysis of TPHP in mice (serum, liver, ileum) by UPLC-MS/MS; assay type: in vivo, C57BL/6N mice; details: mouse
Experimental: (§1) Male C57BL/6N mice (8 wk of age) were purchased from Beijing Vital River Laboratory Inc. and acclimated to the environment for 2 wk before they were used for experiments. The environment was maintained at 22°C, in a 12-h light/dark cycle with 50%–60% relative humidity and fed standard chow diets. Because the male mice are more sensitive to metabolic disease than female mice and the estrous cycle of female mice may induce variability to the metabolic phenotypes,[50] only male mice were used in this study. Animals were randomly assigned to control or TPHP treatment groups (five mice per group). Mice were exposed to corn oil (control) purchased from Sigma-Aldrich (C8267) or TPHP (dissolved in corn oil) at 10mg/kg or 50mg/kg body weight (BW) by daily oral gavage for 35 d. The administered volume was 5mL/kg BW. The TPHP corn oil solutions for administration were prepared by dissolving the TPHP in corn oil, and the solutions were stored at −20°C and freshly prepared each week. BW was measured every other day during the dosing period. At the end of experiments, the mice were anesthetized with isoflurane, then blood was collected from the retro-orbital sinus via orbital puncture, and then the mice were euthanized by cervical dislocation. The liver was isolated, weighted, and divided into three fractions: one fraction was fixed with 4% neutral-buffered formalin for Oil Red staining; another fraction was frozen in liquid nitrogen and stored at −80°C for the BA targeted analysis, lipidomic analysis, and qPCR analysis; the remaining fraction was embedded with 3% carboxymethylcellulose (CMC) for MSI analysis. The ileum was also isolated, weighted, and stored at −80°C for the BA targeted analysis and qRT-PCR analysis. Cecal contents were collected from the cecum of mice for the 16S rRNA gene sequencing analysis. Animal study protocols were approved by the Animal Care and Use Committee of Peking University (approval number: Urban-WanY-1).
Samples of serum ( 100μL ) and freeze-dried liver ( 50mg ) and ileum tissues ( 10mg ) were spiked with 10μL of 100 ng/mL TPHP- d15 (CDAA-412134D15; ANPEL) and extracted with 2mL of ethyl acetate for 10 min on an orbital shaker. After centrifuging at 4,000×g for 10 min, the supernatants were transferred to glass tubes. The extraction process was performed twice, and the supernatants were combined, concentrated to near dryness under a gentle stream of nitrogen, and reconstituted in 1mL of n -hexane. Then, the extracts were loaded on a Sep-Pak Aminopropyl ( NH2 ) cartridge (6cc, 500mg; Waters) preconditioned with 6mL of dichloromethane, 6mL of dichloromethane/n-hexane (1:4, v/v), and 6mL of n -hexane. After being rinsed with 6mL of n -hexane and 6mL of dichloromethane/n-hexane (1:4, v/v), the target analytes were eluted with 3mL of dichloromethane. The eluates were dried under a gentle stream of nitrogen and reconstituted in 100μL of methanol.
Analysis of TPHP was performed on a Waters Xevo TQ-XS Triple Quadrupole mass spectrometer coupled with the Waters ACQUITY UPLC I-Class System. An InfinityLab Poroshell C18 column ( 100×2.1mm , 1.9μm ) was used. The injection volume was 5μL . Ultrapure water (0.1% formic acid) (A) and acetonitrile (B) were used as the mobile phases. The elution gradient was performed as follows: 0–3 min, 50% B; 3–6 min, 50%−70% B; 6–6.2 min, 70%−100% B; 6.2–8.5 min, 100%−100% B; 8.5–8.6 min, 100%−50% B; 8.6–10 min, 50% B. The rate of flow was 0.3mL/min . The column temperature was maintained at 40°C. The mass spectrometer was equipped with an ESI source and operated in multiple reaction monitoring (MRM) and positive ion mode. A capillary voltage of 3.0 kV , a source temperature of 150°C, and a desolvation temperature of 500°C were used. Desolvation gas and the cone gas flow were set as 1,200 liters/h and 150 liters/h , respectively, and the collision gas was 0.15mL/min . […] The matrix effects were 114.9±4.3% and 118.4±0.5% for the serum and tissues, respectively.

[2] = test system: C57BL/6N mice; assay: Serum ALT and AST activities; assay type: in vivo; details: for Serum ALT activity / Serum AST activity: individual mice
Experimental: as §1
Blood samples collected from the mice were incubated in a 37°C water bath for 30 min and then incubated under 4°C for 5 h. After centrifuged at 5,000×g and 4°C for 5 min, the serums were aliquoted and stored at −80°C . The determination of serum alanine transaminase (ALT) and aspartate transaminase (AST) activities in the serum were determined using the commercial kits (E2021, E2023; Applygen).

[3] = test system: FXR target genes and ceramide synthesis genes in ileum; assay: qPCR of genes in mouse ileum; assay type: in vivo, C57BL/6N mice
Experimental: as §1
Total RNA was extracted from cells or mice tissues (liver and ileum) using the Total RNA kit (Tiangen Biotech), and concentration and quality of the RNA were determined using a SMA4000 Nanodrop spectrophotometer (Merinton). Then, the RNA was reverse transcribed into cDNA by HiScript III RT SuperMix for qPCR (Vazyme). In addition, qPCR was performed in the Mx3005P real-time PCR system (Agilent Technologies) with the ChamQ SYBR qPCR Master Mix Kit (Vazyme). Reactions were carried out for 5 min at 95°C, followed by 40 cycles of two-step PCR for 10 s at 95°C and 30 s at 60°C. The relative RNA expression levels of the target genes were normalized to GAPDH using the 2^−ΔΔCt method.

[4] = TPHP-H: 50 mg/kg daily oral gavage 35 d
[5] = TPHP-L: 10 mg/kg daily oral gavage 35 d

## O=P(Oc1ccccc1)(Oc1ccccc1)Oc1ccccc1 [TPHP, triphenyl phosphate]
[1]; male, C57BL/6N, ileum, TPHP-H: 50 mg/kg daily oral gavage 35 d, read-out: TPHP concentration in ileum
  concentration at 35 d: 13.2 ± 0.91 ng/g
[1]; male, C57BL/6N, ileum, TPHP-L: 10 mg/kg daily oral gavage 35 d, read-out: TPHP concentration in ileum
  concentration at 35 d: 7.24 ± 1.33 ng/g
[1]; male, C57BL/6N, liver, TPHP-H: 50 mg/kg daily oral gavage 35 d, read-out: TPHP concentration in liver
  concentration at 35 d: 12.9 ± 3.31 ng/g
[1]; male, C57BL/6N, liver, TPHP-L: 10 mg/kg daily oral gavage 35 d, read-out: TPHP concentration in liver
  concentration at 35 d: 5.33 ± 1.91 ng/g
[1]; serum, TPHP-H: 50 mg/kg daily oral gavage 35 d, male C57BL/6N mice, read-out: TPHP concentration in serum
  concentration at 35 d: 0.79 ± 0.36 ng/mL
[1]; serum, TPHP-L: 10 mg/kg daily oral gavage 35 d, male C57BL/6N mice, read-out: TPHP concentration in serum
  concentration at 35 d: 0.32 ± 0.03 ng/mL
[2]; TPHP exposure groups
  Serum ALT vs control group (in words): significantly higher
  Serum AST vs control group (in words): higher
[2]; [4]
  Serum ALT activity: 14.85 and 21.35 and 16.29
  Serum AST activity: 72.41 and 61.71 and 102.89
[2]; [5]
  Serum ALT activity: 15.83 and 17.21 and 25.56
  Serum AST activity: 84.28 and 74.46 and 60.21
[3]; TPHP-H: 50 mg/kg, 35 d
  Relative mRNA expression of Asbt in ileum: 1.65 fold changes and 1.26 fold changes and 1.68 fold changes
  Relative mRNA expression of Cers2 in ileum: 0.89 fold changes and 1.24 fold changes and 1.27 fold changes
  Relative mRNA expression of Cers4 in ileum: 1.11 fold changes and 0.99 fold changes and 1.05 fold changes
  Relative mRNA expression of Cers6 in ileum: 0.73 fold changes and 1.06 fold changes and 0.97 fold changes
  Relative mRNA expression of Degs1 in ileum: 0.95 fold changes and 0.99 fold changes and 1.02 fold changes
  Relative mRNA expression of Degs2 in ileum: 1.14 fold changes and 1.06 fold changes and 1.21 fold changes
  Relative mRNA expression of Ibabp in ileum: 0.78 fold changes and 0.85 fold changes and 0.92 fold changes
  Relative mRNA expression of Ostα in ileum: 0.84 fold changes and 0.68 fold changes and 0.79 fold changes
  Relative mRNA expression of Shp in ileum: 0.10 fold changes and 0.18 fold changes and 0.19 fold changes
  Relative mRNA expression of Smpd2 in ileum: 1.21 fold changes and 1.23 fold changes and 0.91 fold changes
  Relative mRNA expression of Smpd3 in ileum: 0.99 fold changes and 0.93 fold changes and 1.32 fold changes
  Relative mRNA expression of Smpd4 in ileum: 0.86 fold changes and 0.81 fold changes and 0.93 fold changes
  Relative mRNA expression of Sptlc1 in ileum: 1.12 fold changes and 0.98 fold changes and 0.80 fold changes
  Relative mRNA expression of Sptlc2 in ileum: 1.09 fold changes and 1.01 fold changes and 0.85 fold changes
[3]; TPHP-L: 10 mg/kg, 35 d
  Relative mRNA expression of Asbt in ileum: 1.43 fold changes and 1.04 fold changes and 1.42 fold changes
  Relative mRNA expression of Cers2 in ileum: 1.06 fold changes and 1.32 fold changes and 1.08 fold changes
  Relative mRNA expression of Cers4 in ileum: 1.04 fold changes and 1.11 fold changes and 1.40 fold changes
  Relative mRNA expression of Cers6 in ileum: 0.77 fold changes and 1.22 fold changes and 1.15 fold changes
  Relative mRNA expression of Degs1 in ileum: 1.06 fold changes and 1.19 fold changes and 1.18 fold changes
  Relative mRNA expression of Degs2 in ileum: 1.13 fold changes and 0.96 fold changes and 1.41 fold changes
  Relative mRNA expression of Fgf15 in ileum: 0.80 fold changes and 0.54 fold changes and 0.50 fold changes
  Relative mRNA expression of Ibabp in ileum: 0.79 fold changes and 0.87 fold changes and 0.75 fold changes
  Relative mRNA expression of Ostα in ileum: 0.81 fold changes and 0.96 fold changes and 0.82 fold changes
  Relative mRNA expression of Shp in ileum: 0.33 fold changes and 0.38 fold changes and 0.36 fold changes
  Relative mRNA expression of Smpd2 in ileum: 1.01 fold changes and 1.00 fold changes and 1.07 fold changes
  Relative mRNA expression of Smpd3 in ileum: 1.11 fold changes and 1.07 fold changes and 1.10 fold changes
  Relative mRNA expression of Smpd4 in ileum: 0.84 fold changes and 0.96 fold changes
  Relative mRNA expression of Sptlc1 in ileum: 0.87 fold changes and 1.15 fold changes and 0.75 fold changes
  Relative mRNA expression of Sptlc2 in ileum: 0.89 fold changes and 1.15 fold changes and 1.13 fold changes
[3]; after TPHP exposure
  Expression of ceramide synthesis genes in the ileum vs control (in words): not significantly different
